The values below are quoted from earlier work in patent US20170083675A1, “Method for Selecting Patient Subpopulation for Custirsen Treatment” (OncoGenex Technologies Inc., priority 2015, published 2017).

The data set deals with metastatic castrate resistant prostate cancer (CRPC). As to conditions: second-line chemotherapy.

In the case of `CO[C@H]1C(=O)[C@]2(C)[C@@H](OC)C[C@H]3OC[C@@]3(OC(C)=O)[C@H]2[C@H](OC(=O)c2ccccc2)[C@]2(O)C[C@H](OC(=O)[C@H](O)[C@@H](NC(=O)OC(C)(C)C)c3ccccc3)C(C)=C1C2(C)C` [cabazitaxel], the “survival compared to mitoxantrone (in words)” value was “survival advantage”.
